“And” between values parts separate entries of the source, which are not always exact repeats. Equal entries are not always repeated.
Assays:
H. pylori ATCC No. 43826 = assay: Disk diffusion susceptibility of H. pylori to sodium fusidate; type: cell-based, Helicobacter pylori; conditions: 4 days at 37° C., sample No. = replicate disk
Description: (§1) In vitro testing for the susceptibility of H. pylori to sodium fusidate was performed. Inoculation was made with a broth culture of two ATCC strains of H. pylori (ATCC No. 700824 and 43826) diluted to match a 0.5 McFarland turbidity standard. Disks containing increasing antibiotic concentrations (0.5-4.0%) were placed on seeded bacterial lawn on agar surface. Three disks with the same antibiotic concentration were placed on each plate. The disks were evenly distributed in a circle towards the periphery of the plate. Plates were incubated for 4 days at an incubation temperature of 37° C. (with Microaerophilic pach). Diameter of inhibition sizes was measured wherein each disk was considered to represent the center of the clear zone, namely the slope of the regression line is construed to correspond to the diffusion coefficient of the antibiotic in the agar. Negative control disks containing water instead of antibiotics were placed at the center of each dish. A separate plate with no disks was prepared as an additional control. […]

[1] = tested on: H. pylori ATCC No. 700824; assay: as above; type: cell-based, Helicobacter pylori; conditions: 4 days at 37° C., sample No. = replicate disk
Description: as §1

[2] = tested on: different strains of H. pylori; assay: In vitro studies against different strains of H. pylori; type: cell-based, Helicobacter pylori
Description: The present disclosure is based in part on the unexpected finding of bacteriostatic and/or bacteriocidic action of fusidic acid or a pharmaceutically acceptable salt or solvate thereof (e.g. sodium fusidate) against H. pylori. […] This finding provides a significant advantage over the hitherto known treatments, by increasing the percentage of patients in which eradication is achieved, reducing doses and side effects of conventional add-on therapy, preserving gut microbiota, and decreasing exposure to conventional antibiotics thereby decreasing antibiotic resistance. In addition, fusidic acid and/or salts and solvates thereof have no cross-resistance with the existing antibiotics used for the treatment of H. pylori and have low probability for developing resistance.

H. pylori = conditions: cited from earlier work
[3] = sodium fusidate con. 0.5% on disk
[4] = sodium fusidate con. 1.0% on disk
[5] = sodium fusidate con. 4.0% on disk

Q: For `CC(=O)O[C@H]1C[C@@]2(C)[C@@H](C[C@@H](O)[C@H]3[C@@]4(C)CC[C@@H](O)[C@@H](C)[C@@H]4CC[C@@]32C)/C1=C(\CCC=C(C)C)C(=O)O` [Sodium fusidate, sodium fusidate], which Diameter of inhibition (H. pylori ATCC No. 43826; [3]) is on record?
A: Its Diameter of inhibition is ≥4.4 cm.

Q: What about the Diameter of inhibition (H. pylori ATCC No. 43826; [4]) of the same compound?
A: Its Diameter of inhibition is ≥4.4 cm.

Q: What about the Diameter of inhibition (H. pylori ATCC No. 43826; [5]) of the same compound?
A: Its Diameter of inhibition is ≥4.4 cm.

Q: What about the Diameter of inhibition [1, 3] of the same compound?
A: The Diameter of inhibition was 1.6 cm and 2 cm and 2.4 cm.

Q: What about the Diameter of inhibition [1, 4] of the same compound?
A: Its Diameter of inhibition is 2.7 cm and 2.6 cm and 3.0 cm.

Q: And the Diameter of inhibition [1, 5]?
A: Its Diameter of inhibition is ≥4.4 cm.

Q: What about the “Activity against different strains of H. pylori” value [2] of the same compound?
A: The value was “active”.

Q: Which “Activity against different strains of H. pylori” value [2] does the source give for `CC(=O)O[C@H]1C[C@@]2(C)[C@@H](C[C@@H](O)[C@H]3[C@@]4(C)CC[C@@H](O)[C@@H](C)[C@@H]4CC[C@@]32C)/C1=C(\CCC=C(C)C)C(=O)O` [fusidic acid, 29-Nordammara-17(20),24-dien-21-oic acid, 16-(acetyloxy)-3,11-dihydroxy-, (3α, 4α, 8α, 9α, 11α, 13α, 14β, 16β, 17Z)-] here?
A: Its value is “active”.

Q: And the “Efficacy as monotherapy against H. pylori” value (H. pylori)?
A: Its value is “ineffective”.

Source: patent US11096948B2, “Methods for treating helicobacter infection” (DEXCEL PHARMA TECHNOLOGIES LTD., priority 2016, dated 2021)
